Results reported in patent US20230203059A1, “MACROCYCLIC JAK INHIBITOR AND USES THEREOF” (Biopolar Hongye (Guangdong) Pharmaceutical Co. Ltd., priority 2020, published 2023).
Where two headings read alike, the source gives them in different places.

How the values were obtained:
Format in all cases: biochemical
JAK1 = JAK1 (Homo sapiens, UniProt P23458); test: JAK kinase activity, homogeneous time-resolved fluorescence (JAK1 reaction system); conditions: ATP 2 μM, JAK1 protein 0.2 ng/μL; read-out: JAK 1 activity
JAK1, sequence (P23458 whole entry): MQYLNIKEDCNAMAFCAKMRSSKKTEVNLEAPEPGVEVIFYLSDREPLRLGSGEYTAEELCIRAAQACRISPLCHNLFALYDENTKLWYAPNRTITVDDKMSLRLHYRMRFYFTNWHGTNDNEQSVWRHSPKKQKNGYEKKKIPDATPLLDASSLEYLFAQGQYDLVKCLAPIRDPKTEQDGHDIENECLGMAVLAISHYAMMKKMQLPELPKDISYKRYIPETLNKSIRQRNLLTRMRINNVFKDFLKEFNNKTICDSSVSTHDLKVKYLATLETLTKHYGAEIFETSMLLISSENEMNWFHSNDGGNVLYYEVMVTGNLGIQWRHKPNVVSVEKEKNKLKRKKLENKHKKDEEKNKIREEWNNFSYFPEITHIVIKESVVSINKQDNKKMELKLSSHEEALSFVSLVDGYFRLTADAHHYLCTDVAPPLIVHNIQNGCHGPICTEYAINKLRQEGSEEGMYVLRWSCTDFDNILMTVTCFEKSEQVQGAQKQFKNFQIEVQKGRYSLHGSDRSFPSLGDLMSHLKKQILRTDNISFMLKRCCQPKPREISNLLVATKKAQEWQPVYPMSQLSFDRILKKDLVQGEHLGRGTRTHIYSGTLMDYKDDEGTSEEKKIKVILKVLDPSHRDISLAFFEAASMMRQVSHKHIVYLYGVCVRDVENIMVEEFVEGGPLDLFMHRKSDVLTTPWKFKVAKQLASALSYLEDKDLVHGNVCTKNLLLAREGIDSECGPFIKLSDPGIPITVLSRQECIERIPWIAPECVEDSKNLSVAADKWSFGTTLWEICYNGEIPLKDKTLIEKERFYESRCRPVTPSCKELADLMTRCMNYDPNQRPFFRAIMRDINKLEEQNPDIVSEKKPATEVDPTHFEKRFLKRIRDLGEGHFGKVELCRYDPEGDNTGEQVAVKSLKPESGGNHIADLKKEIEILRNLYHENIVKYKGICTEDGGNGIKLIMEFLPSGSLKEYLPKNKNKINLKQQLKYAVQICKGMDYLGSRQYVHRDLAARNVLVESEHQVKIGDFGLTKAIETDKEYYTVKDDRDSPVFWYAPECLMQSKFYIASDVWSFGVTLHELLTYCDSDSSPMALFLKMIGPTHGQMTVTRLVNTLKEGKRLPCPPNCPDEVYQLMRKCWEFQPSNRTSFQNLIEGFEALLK
Outline: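 Kinase activity read as the 665 nm/615 nm time-resolved fluorescence ratio (320 nm excitation) after EDTA-containing antibody and XL-615 addition. Reaction ran 1 h at pH 7.0 (Hepes, MgCl2, DTT) with 0.2 ng/μL JAK1 and ATP at 2 μM. IC50 derived by Hill-slope fit.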

JAK2 = JAK2 (Homo sapiens, UniProt O60674); test: JAK kinase activity, homogeneous time-resolved fluorescence (JAK2 reaction system); conditions: ATP 2 μM, JAK2 protein 0.01 ng/μL
JAK2, sequence (O60674 whole entry): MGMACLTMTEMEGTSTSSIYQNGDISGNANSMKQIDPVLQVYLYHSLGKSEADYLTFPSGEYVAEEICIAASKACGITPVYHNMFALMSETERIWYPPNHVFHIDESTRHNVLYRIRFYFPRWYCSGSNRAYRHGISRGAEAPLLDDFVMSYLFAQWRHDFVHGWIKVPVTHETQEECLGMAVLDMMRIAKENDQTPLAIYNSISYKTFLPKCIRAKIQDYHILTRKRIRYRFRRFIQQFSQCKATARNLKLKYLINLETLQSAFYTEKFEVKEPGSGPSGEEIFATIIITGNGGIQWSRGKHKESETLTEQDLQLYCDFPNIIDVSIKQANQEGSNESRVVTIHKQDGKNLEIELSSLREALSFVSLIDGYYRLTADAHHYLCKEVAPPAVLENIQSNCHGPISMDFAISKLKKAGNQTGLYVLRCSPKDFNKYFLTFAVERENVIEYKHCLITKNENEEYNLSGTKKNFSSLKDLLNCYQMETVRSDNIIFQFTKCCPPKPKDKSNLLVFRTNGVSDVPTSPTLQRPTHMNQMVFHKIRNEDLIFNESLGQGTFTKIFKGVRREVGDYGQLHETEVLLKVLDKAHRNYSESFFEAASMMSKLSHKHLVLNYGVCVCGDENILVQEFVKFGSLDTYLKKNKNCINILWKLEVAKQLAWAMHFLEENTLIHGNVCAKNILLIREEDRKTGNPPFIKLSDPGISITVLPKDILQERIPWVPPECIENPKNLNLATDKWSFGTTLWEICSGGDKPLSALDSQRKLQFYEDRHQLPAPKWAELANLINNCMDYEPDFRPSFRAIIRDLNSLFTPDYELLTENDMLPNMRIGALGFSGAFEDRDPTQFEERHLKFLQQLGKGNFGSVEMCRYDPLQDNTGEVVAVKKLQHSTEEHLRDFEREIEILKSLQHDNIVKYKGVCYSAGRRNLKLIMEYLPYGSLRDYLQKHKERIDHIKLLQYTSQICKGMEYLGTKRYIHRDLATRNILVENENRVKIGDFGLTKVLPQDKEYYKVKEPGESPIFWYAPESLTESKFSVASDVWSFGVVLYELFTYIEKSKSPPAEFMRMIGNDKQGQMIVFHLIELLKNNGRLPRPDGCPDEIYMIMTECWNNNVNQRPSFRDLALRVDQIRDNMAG
Outline: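 IC50 derived by Hill-equation fit of the 665/615 nm time-resolved fluorescence ratio after EDTA-containing detection mix with anti-phosphosubstrate antibody. Preceding 1 h reaction contained 2 μM ATP, 0.01 ng/μL JAK2, substrate, 50 mM Hepes pH 7.0, 5 mM MgCl2, 1 mM DTT.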

JAK3 = molecular target: T1, JAK3 (Homo sapiens, UniProt P52333); test: JAK kinase activity, homogeneous time-resolved fluorescence (JAK3 reaction system)
T1 sequence (P52333 1-1124): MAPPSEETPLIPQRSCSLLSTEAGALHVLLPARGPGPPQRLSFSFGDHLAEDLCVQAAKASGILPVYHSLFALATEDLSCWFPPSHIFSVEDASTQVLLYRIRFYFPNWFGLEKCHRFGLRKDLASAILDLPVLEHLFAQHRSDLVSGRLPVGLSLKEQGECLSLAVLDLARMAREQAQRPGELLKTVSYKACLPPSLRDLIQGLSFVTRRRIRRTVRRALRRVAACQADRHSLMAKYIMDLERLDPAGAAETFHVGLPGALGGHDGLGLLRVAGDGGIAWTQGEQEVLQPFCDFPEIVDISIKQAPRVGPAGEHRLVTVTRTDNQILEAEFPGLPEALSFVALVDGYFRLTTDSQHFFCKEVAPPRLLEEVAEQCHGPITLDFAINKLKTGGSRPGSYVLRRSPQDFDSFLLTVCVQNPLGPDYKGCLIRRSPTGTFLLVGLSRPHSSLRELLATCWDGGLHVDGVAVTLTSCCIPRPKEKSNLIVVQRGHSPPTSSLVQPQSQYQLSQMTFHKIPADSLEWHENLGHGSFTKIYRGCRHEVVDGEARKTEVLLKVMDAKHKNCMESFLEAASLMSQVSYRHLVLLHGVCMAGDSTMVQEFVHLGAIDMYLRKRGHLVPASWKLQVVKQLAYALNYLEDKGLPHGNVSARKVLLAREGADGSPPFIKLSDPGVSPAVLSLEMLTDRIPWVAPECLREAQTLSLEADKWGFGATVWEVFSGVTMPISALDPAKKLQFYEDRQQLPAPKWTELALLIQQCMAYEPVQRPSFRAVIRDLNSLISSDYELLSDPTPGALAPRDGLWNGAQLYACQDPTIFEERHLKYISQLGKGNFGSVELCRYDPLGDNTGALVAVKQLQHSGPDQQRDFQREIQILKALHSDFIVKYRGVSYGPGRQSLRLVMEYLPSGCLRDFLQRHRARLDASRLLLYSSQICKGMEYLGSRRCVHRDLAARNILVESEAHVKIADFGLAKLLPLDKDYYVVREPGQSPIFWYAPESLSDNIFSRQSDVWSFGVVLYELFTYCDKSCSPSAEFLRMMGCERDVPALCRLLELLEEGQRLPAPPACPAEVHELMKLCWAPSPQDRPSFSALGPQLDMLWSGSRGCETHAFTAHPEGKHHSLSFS

TYK2 = TYK2 (Homo sapiens, UniProt P29597); test: JAK kinase activity, homogeneous time-resolved fluorescence (TYK2 reaction system); conditions: ATP 2 μM, TYK2 protein 0.2 ng/μL; read-out: TYK 2 activity
TYK2, sequence (P29597 whole entry): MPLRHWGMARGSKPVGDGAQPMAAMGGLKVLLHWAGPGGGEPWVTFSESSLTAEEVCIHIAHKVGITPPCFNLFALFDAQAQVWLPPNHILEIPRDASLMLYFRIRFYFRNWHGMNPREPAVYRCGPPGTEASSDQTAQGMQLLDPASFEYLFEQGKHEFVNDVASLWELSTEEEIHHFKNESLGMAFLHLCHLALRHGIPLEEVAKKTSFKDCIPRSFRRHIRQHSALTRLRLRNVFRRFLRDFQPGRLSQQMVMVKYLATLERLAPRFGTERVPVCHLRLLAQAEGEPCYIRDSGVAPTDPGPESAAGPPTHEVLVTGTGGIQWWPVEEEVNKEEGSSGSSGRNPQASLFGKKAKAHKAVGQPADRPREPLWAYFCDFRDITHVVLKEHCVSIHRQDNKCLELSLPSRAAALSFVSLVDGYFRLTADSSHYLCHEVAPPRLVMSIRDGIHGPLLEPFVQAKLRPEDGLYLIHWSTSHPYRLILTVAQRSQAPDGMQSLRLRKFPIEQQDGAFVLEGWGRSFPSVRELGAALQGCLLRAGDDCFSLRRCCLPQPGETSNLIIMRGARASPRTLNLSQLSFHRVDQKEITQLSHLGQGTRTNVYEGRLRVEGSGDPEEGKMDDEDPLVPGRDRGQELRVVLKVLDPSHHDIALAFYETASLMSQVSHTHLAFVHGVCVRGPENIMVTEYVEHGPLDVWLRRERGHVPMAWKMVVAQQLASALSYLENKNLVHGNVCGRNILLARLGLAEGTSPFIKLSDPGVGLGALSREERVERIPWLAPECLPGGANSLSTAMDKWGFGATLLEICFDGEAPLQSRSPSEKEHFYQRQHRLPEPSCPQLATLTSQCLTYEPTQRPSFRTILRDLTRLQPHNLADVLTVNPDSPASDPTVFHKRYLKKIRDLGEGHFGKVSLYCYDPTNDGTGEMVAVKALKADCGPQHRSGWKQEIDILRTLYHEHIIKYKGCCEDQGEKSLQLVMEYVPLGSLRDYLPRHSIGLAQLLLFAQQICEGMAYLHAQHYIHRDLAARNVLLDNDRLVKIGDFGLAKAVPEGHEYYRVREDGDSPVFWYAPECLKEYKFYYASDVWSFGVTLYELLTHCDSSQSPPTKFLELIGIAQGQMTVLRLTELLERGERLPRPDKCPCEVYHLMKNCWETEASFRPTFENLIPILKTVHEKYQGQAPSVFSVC
Outline: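 Activity read as the 665 nm/615 nm ratio after adding EDTA-containing detection mix with anti-phospho-substrate antibody and XL-615. Beforehand, 0.2 ng/μL TYK2, 2 μM ATP, substrate and compound reacted 1 h in pH 7.0 Hepes buffer with MgCl2 and DTT. IC50 fitted with Hill-slope equation.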

[1] = ATP 2 μM, JAK3 protein 0.04 ng/μL, read-out: JAK 3 activity

| IC50 (JAK1) [nM] | IC50 (JAK2) [nM] | IC50 (JAK3; [1]) [nM] | IC50 (TYK2) [nM] | Compound | IC50 (JAK3) [nM] |
| --- | --- | --- | --- | --- | --- |
| 1000 to 10000 | 101 to 1000 | < 10 | 1000 to 10000 | COc1cccc(F)c1COc1ccc2cc1COCCC(C)CNC(=O)c1ccc(c(N)c1)-c1ccnc(n1)N2 (centres unmarked) [Example 182, 1^2-amino-4^4-((2-fluoro-6-methoxy-benzyl)oxy)-9-methyl-6-oxa-3,11-diaza-2(4,2)-pyrimidina-1(1,4),4(1,3)-dibenzenacyclododecaphan-12-one] |  |
| 101 to 1000 | 101 to 1000 | 11 to 100 | 1000 to 10000 | Nc1cc2ccc1-c1ccnc(n1)Nc1ccc(OC3CC(F)(F)C3)c(c1)COCCCCNC2=O [Example 98, 1^2-amino-4^4-(3,3-difluorocyclobuto-xy)-6-oxa-3,11-diaza-2(4,2)-pyri-midina-1(1,4),4(1,3)-dibenzenacyclo-dodecaphan-12-one] |  |
| 101 to 1000 | 11 to 100 | < 10 | 101 to 1000 | Nc1cc2ccc1-c1ccnc(n1)Nc1ccc(N3CCCCC3)c(c1)COCCCCNC2=O [Example 55, 1^2-amino-4^4-(piperidin-1-)-6-oxa-3,11-diaza-2(4,2)-pyrimidina-1(1,4),4(1,3)-dibenzenacyclododecaphan-12-one] |  |
| 1000 to 10000 | 101 to 1000 | < 10 | 1000 to 10000 | Nc1cc2ccc1-c1ccnc(n1)Nc1ccc(OCC3CC(F)(F)C3)c(c1)COCCCCNC2=O [Example 127, 1^2-Amino-4^4-((3,3-difluorocyclo-butyl)methoxy)-6-oxa-3,11-diaza-2(4,2)-pyrimidina-1(1,4),4(1,3)-di-benzenacyclododecaphan-12-one] |  |
| 1000 to 10000 | 101 to 1000 | 11 to 100 | 1000 to 10000 | Cc1cc2ccc1-c1ccnc(n1)Nc1ccc(N3CCOCC3)c(c1)COCCCCNC2=O [Example 23, 1^2-methyl-4^4-morpholin-6-oxa-3,11-diaza-2(4,2)-pyrimidina-1(1,4),4(1,3)-dibenzenacyclododecaphan-12-one] |  |
| 1000 to 10000 | 1000 to 10000 | 11 to 100 | > 10000 | CC1CCNC(=O)c2ccc(c(N)c2)-c2ccnc(n2)Nc2ccc(OCC3CCCCC3)c(c2)COC1 (centres unmarked) [Example 149, 1^2-amino-4^4-(cyclohexylmethoxy)-8-methyl-6-oxa-3,11-diaza-2(4,2)-pyrimidina-1(1,4),4(1,3)-dibenzena-cyclododecaphan-12-one] |  |
| 1000 to 10000 | 101 to 1000 | 11 to 100 | 1000 to 10000 | CC(C)Oc1ccc2cc1COc1ccc(cc1)NC(=O)c1ccc(c(N)c1)-c1ccnc(n1)N2 [Example 198, 1^2-amino-4^4-isopropoxy-6-oxa-3,8-diaza-2(4,2)-pyrimidina-1,7(1,4),4(1,3)-tribenzenacyclononaphane-9-one] |  |
| 1000 to 10000 | 1000 to 10000 | 11 to 100 | 1000 to 10000 | COc1cc(F)cc(Cl)c1COc1ccc2cc1COCCCCNC(=O)c1ccc(c(N)c1)-c1ccnc(n1)N2 [Example 195, 1^2-amino-4^4-((2-chloro-4-fluoro-6-methoxybenzyl)oxy)-6-oxa-3,11-diaza-2(4,2)-pyrimidina-1(1,4),4(1,3)-dibenzenacyclododecaphan-12-one] |  |
| 101 to 1000 | 11 to 100 | 11 to 100 | 101 to 1000 | Nc1cc2ccc1-c1ccnc(n1)Nc1ccc(N3CCSCC3)c(c1)COCCCCNC2=O [Example 66, 1^2-amino-4-thiomorpholin-6-oxa-3,11-diaza-2(4,2)-pyrimidina-1(1,4),4(1,3)-dibenzenacyclo-dodecaphan-12-one] |  |
| 101 to 1000 | < 10 | 11 to 100 | 101 to 1000 | O=C1NCCCCCc2cc(ccc2N2CCOCC2)Nc2nccc(n2)-c2ccc1cc2 [Example 32, 4^4-morpholin-3,11-diaza-2(4,2)-pyri-midina-1(1,4),4(1,3)-dibenzenacyclo-dodecaphan-11-one] |  |
| 11 to 100 | 11 to 100 | 11 to 100 | 1000 to 10000 | O=C1NCCCCOCc2cc(cc(N3CCOCC3)c2)Nc2ncc(Cl)c(n2)-c2ccc1cc2 [Example 16, 2^5-chloro-4^5-morpholin-6-oxa-3,11-diaza-2(4,2)-pyrimidina-1(1,4),4(1,3)-dibenzenacyclododecaphan-12-one] |  |
| 101 to 1000 | 11 to 100 | < 10 | 11 to 100 | Nc1cc2ccc1-c1ccnc(n1)Nc1ccc(N3CCOCC3)c(c1)COCCCCCNC2=O [Example 50, 1^2-amino-4^4-morpholin-6-oxa-3,12-diaza-2(4,2)-pyrimidina-1(1,4),4(1,3)-dibenzenacyclotridecaphan-13-one] |  |
| > 10000 | 1000 to 10000 | 101 to 1000 | > 10000 | CC1CCNC(=O)c2ccc(c([N+](=O)[O-])c2)-c2ccnc(n2)Nc2ccc(OC3CC3)c(c2)COC1 (centres unmarked) [Example 103] |  |
| 1000 to 10000 | 101 to 1000 | 11 to 100 | 1000 to 10000 | COc1cccc(F)c1COc1ccc2cc1COCCCCNC(=O)c1ccc(c(N)c1)-c1ccnc(n1)N2 [Example 172, 1^2-amino-4^4-((2-fluoro-6-methoxy-benzyl)oxy)-6-oxa-3,11-diaza-2(4,2)-pyrimidina-1(1,4),4(1,3)-di-benzenacyclododecaphan-12-one] |  |
| 1000 to 10000 | 1000 to 10000 | 101 to 1000 | > 10000 | O=C1NCCCCOCc2cc(ccc2OCC2CCC(F)(F)C2)Nc2nccc(n2)-c2ccc1cc2[N+](=O)[O-] (centres unmarked) [Example 120, 4^4-((3,3-difluorocyclopentyl)meth-oxy)-1^2-nitro-6-oxa-3,11-diaza-2(4,2)-pyrimidina-1(1,4),4(1,3)-di-benzenacyclododecaphan-12-one] |  |
| 101 to 1000 | 101 to 1000 | 11 to 100 | 1000 to 10000 | O=C1NCCCCOCc2cc(ccc2Cl)Nc2nccc(n2)-c2ccc1cc2F [Example 20, 4^4-chloro-1^2-fluoro-6-oxa-3,11-diaza-2(4,2)-pyrimidina-1(1,4),4(1,3)-di-benzenacyclododecaphan-12-one] |  |
| 1000 to 10000 | 1000 to 10000 | 101 to 1000 | > 10000 | Cc1ccc2cc1COCCCCNC(=O)c1ccc(c(C)c1)-c1ccnc(n1)N2 [Example 39, 1^2,4^4-dimethyl-6-oxa-3,11-diaza-2(4,2)-pyrimidina-1(1,4),4(1,3)-diben-zenacyclododecaphan-12-one] |  |
| 1000 to 10000 | 1000 to 10000 | 11 to 100 | > 10000 | Nc1cc2ccc1-c1ccnc(n1)Nc1ccc(Oc3cccnc3)c(c1)COc1ccc(cc1)NC2=O [Example 205, 1^2-amino-4^4-(pyridin-3-oxy)-6-oxa-3,8-diaza-2(4,2)-pyrimidina-1,7(1,4),4(1,3)-tribenzenacyclononaphane-9-one] |  |

| Compound | IC50 (JAK1) [nM] | IC50 (JAK2) [nM] | IC50 (JAK3; [1]) [nM] | IC50 (TYK2) [nM] | IC50 (JAK3) [nM] |
| --- | --- | --- | --- | --- | --- |
| C[C@@H]1CCOCc2cc(ccc2OC2CCCC2)Nc2nccc(n2)-c2ccc(cc2N)C(=O)NC1 [Example 185, (R)-1-amino-4^4-(cyclopentoxy)-9-methyl-6-oxa-3,11-diaza-2(4,2)-py-rimidina-1(1,4),4(1,3)-dibenzena-cyclododecaphan-12-one] | 1000 to 10000 | 101 to 1000 | 11 to 100 | 1000 to 10000 |  |
| O=C1NCCCCOCc2cc(ccc2N2CCSCC2)Nc2nccc(n2)-c2ccc1cc2 [Example 6, 4^4-thiomorpholin-6-oxa-3,11-diaza-2(4,2)-pyrimidina-1(1,4),4(1,3)-dibenze-nacyclododecaphan-12-one] | 101 to 1000 | 11 to 100 |  | 101 to 1000 | 11 to 100 |
